# Measurements as given in patent US6759228B2, “Alkaline protease” (Kao Corporation, priority 1997, dated 2004).
# Read-outs that look alike come from different tables or passages of the source. *1 amine or outer side, *2 acyl side, *3 side chain or, on linkers, in order; H or OH if unused. Where a SMILES comes first, the peptide text is derived from it. CO = O=C([*:1])[*:2]
# Assays:
# KP43 protease [1] = format: biochemical, Bacillus sp. KSM-KP43; conditions: pH 7
# KP1790 protease [2] = format: biochemical, Bacillus sp. KSM-KP1790; conditions: pH 7
# KP9860 protease [3] = experiment: Effects of inhibitors: residual activity, casein method; format: biochemical, Bacillus sp. KSM-KP9860
# KP9860 protease [4] = experiment: Effects of surface active agents: residual activity, casein method; format: biochemical, Bacillus sp. KSM-KP9860; conditions: 1% surfactant, 100 mM borate buffer (pH 10.0), 40° C., 4 hours; no treatment = 100%
# Description: (§1) After 1 mL of 50 mmol/L of various buffer solutions containing 1% (w/v) Casein (Hammerstein: product of Merck Inc.) was maintained at 40° C. for 5 minutes, 0.1 mL of an enzyme solution was added to the solution, followed by incubation at 40° C. for 10 minutes. 2 mL of a TCA solution (0.11 mol/L trichloroacetic acid: 0.22 mol/L sodium acetate: 0.33 mol/L acetic acid) was added to stop the reaction and the mixture was left to stand at room temperature for 10 minutes. Subsequently, acid-denatured protein was filtered (No. 2 filter paper: product of Whattmann). To 0.5 mL of the filtrate, 2.5 mL of alkaline copper reagent (1% (w/v) sodium potassium tartrate: 1% (w/v) copper sulfate: 2% (w/v) sodium carbonate, 0.1 mol/L sodium hydroxide=1:1:100 (v/v)) was added, and after the solution was maintained at 30° C. for 10 minutes, 0.25 mL of diluted phenol reagent (phenol reagent (product of Kanto Chemical) diluted two-fold with deionized water) was added, and after being maintained at 30° C. for 30 minutes, the solution was subjected to an absorbance measurement at 660 nm. The following solution was used as a blank: to the above-described system of enzyme reaction, a reaction termination solution was mixed and then the enzyme solution was added.
# (§2) An enzyme solution (7.0×10^−4 mP. U.) was added to 100 mmol/L boric acid buffer solution containing dissolved surfactants in an amount of 1%, and the resultant solution was incubated at 40° C. for 4 hours. The solution was diluted 20-fold with 50 mmol/L boric acid buffer solution (pH 10.0), and residual activity was measured using casein as a substrate.
# (§3) Each protease was treated with a variety of 1% surface active agent at 40° C. for 4 hours in […], and residual activity was measured. […] Accordingly, the enzymes are considered to be useful as a detergent component containing surfactants.
# KP43 protease [5] = experiment: as above; format: biochemical, Bacillus sp. KSM-KP43; conditions: 1% surfactant, 100 mM borate buffer (pH 10.0), 40° C., 4 hours; no treatment = 100%
# Description: as §1, §2, §3
# KP1790 protease [6] = experiment: as above; format: biochemical, Bacillus sp. KSM-KP1790; conditions: 1% surfactant, 100 mM borate buffer (pH 10.0), 40° C., 4 hours; no treatment = 100%
# KP9860 protease [7] = format: biochemical, Bacillus sp. KSM-KP9860
# KP43 protease [8] = format: biochemical, Bacillus sp. KSM-KP43
# [9] = test system: 3 kinds of proteases (KP43, KP1790, KP9860); experiment: Effects of metal ions, summary for the 3 kinds of proteases; format: biochemical, Bacillus sp.; conditions: 1 mmol/L metal salt, 20 mmol/L boric acid buffer (pH 10), 30° C., 20 minutes
# KP1790 protease [10] = experiment: Effects of metal ions: residual activity, casein method; format: biochemical, Bacillus sp. KSM-KP1790
# [11] = test system: all three kinds of proteases (KP43, KP1790, KP9860); format: biochemical, Bacillus sp.; conditions: pH 7
# [12] = inhibitor 5 mM, 10 mmol/L phosphoric acid buffer (pH 7.0), 30° C., 20 minutes, no inhibitor = 100%
# [13] = inhibitor 0.1 mM, 10 mmol/L phosphoric acid buffer (pH 7.0), 30° C., 20 minutes, no inhibitor = 100%
# [14] = 1 mM metal salt, 20 mM borate buffer (pH 10.0), 30° C., 20 minutes, no metal salt = 100%
compound,measurement,setting,value
"O=C(O)CN(CCOCCOCCN(CC(=O)O)CC(=O)O)CC(=O)O [EGTA, ethyleneglycoltetraacetic acid]",Residual activity (%) KP43,KP43 protease [1],92%
same,Residual activity (%) KP1790,KP1790 protease [2],91%
same,Residual activity (%) KP9860,KP9860 protease [3]; [12],90%
CC(C)C[C@H](NC(=O)N[C@H](C(=O)N[C@@H](CCC(N)=O)C(=O)N[C@@H](C)C=O)[C@@H]1CCNC(=N)N1)C(=O)O [Elastatinal],Residual activity (%) KP43,KP43 protease [1],99%
same,Residual activity (%) KP1790,KP1790 protease [2],102%
same,Residual activity (%) KP9860,KP9860 protease [3]; [13],102%
Na linear alkylbenzenesulfonate [Na linear alkylbenzenesulfonate (LAS)],Residual activity KP9860,KP9860 protease [4],100%
same,Residual activity KP43,KP43 protease [5],100%
same,Residual activity KP1790,KP1790 protease [6],88%
"CCN1C(=O)C=CC1=O [NEM, N-ethylmaleimide]",Residual activity (%) KP43,KP43 protease [1],97%
same,Residual activity (%) KP1790,KP1790 protease [2],100%
same,Residual activity (%) KP9860,KP9860 protease [3]; pH 7,100%
"CCCCCCCCCCCCOS(=O)(=O)[O-].[Na+] [Na dodecyl sulfate (SDS), Na dodecyl sulfate]",Residual activity KP9860,KP9860 protease [4],103%
same,Residual activity KP43,KP43 protease [5],104%
same,Residual activity KP1790,KP1790 protease [6],97%
Na alkyl sulfate [Na alkyl sulfate (AS)],Residual activity KP9860,KP9860 protease [4],107%
same,Residual activity KP43,KP43 protease [5],113%
same,Residual activity KP1790,KP1790 protease [6],107%
"O=C(O)c1cc[c]([Hg][Cl])cc1 [PCMB, p-chloromercury benzoate]",Residual activity (%) KP43,KP43 protease [1],125%
same,Residual activity (%) KP1790,KP1790 protease [2],115%
same,Residual activity (%) KP9860,KP9860 protease [3]; pH 7,126%
"[Cl][Hg][Cl] [HgCl2, mercury chloride]",Residual activity (%) KP9860,KP9860 protease [7]; [14],33%
same,Residual activity (%) KP43,KP43 protease [8]; [14],38%
same,effect of metal salt on activity,[9],inhibited
same,Residual activity (%) KP1790,KP1790 protease [10]; [14],37%
CC(=O)N[C@@H](CC(C)C)C(=O)N[C@@H](CC(C)C)C(=O)N[C@H](C=O)CCCNC(=N)N [Leupeptin],Residual activity (%) KP43,KP43 protease [1],102%
same,Residual activity (%) KP1790,KP1790 protease [2],101%
same,Residual activity (%) KP9860,KP9860 protease [3]; pH 7,93%
same,effect of inhibitor on activity,[11],not found
CoCl2,Residual activity (%) KP9860,KP9860 protease [7]; pH 10,98%
same,Residual activity (%) KP43,KP43 protease [8]; pH 10,91%
same,Residual activity (%) KP1790,KP1790 protease [10]; pH 10,101%
CC(C)C[C@H](NC(=O)[C@H]1O[C@@H]1C(=O)O)C(=O)NCCCCN=C(N)N [E-64],Residual activity (%) KP43,KP43 protease [1],104%
same,Residual activity (%) KP1790,KP1790 protease [2],99%
same,Residual activity (%) KP9860,KP9860 protease [3]; pH 7,103%
α-Sulfofatty acid ester [α-Sulfofatty acid ester (α-SFE)],Residual activity KP9860,KP9860 protease [4],105%
same,Residual activity KP43,KP43 protease [5],112%
same,Residual activity KP1790,KP1790 protease [6],113%
"O=[N+]([O-])[O-].[Ag+] [AgNO3, silver nitrate]",Residual activity (%) KP9860,KP9860 protease [7]; [14],45%
same,Residual activity (%) KP43,KP43 protease [8]; [14],66%
same,effect of metal salt on activity,[9],inhibited
same,Residual activity (%) KP1790,KP1790 protease [10]; [14],70%
"O=C(O)CN(CCN(CC(=O)O)CC(=O)O)CC(=O)O [EDTA, ethylenediaminetetraacetic acid]",Residual activity (%) KP43,KP43 protease [1],110%
same,Residual activity (%) KP1790,KP1790 protease [2],97%
same,Residual activity (%) KP9860,KP9860 protease [3]; [12],101%
Na α-olefinsulfonate [Na α-olefinsulfonate (AOS)],Residual activity KP9860,KP9860 protease [4],100%
same,Residual activity KP43,KP43 protease [5],100%
same,Residual activity KP1790,KP1790 protease [6],111%
[Cl-].[Cl-].[Mg+2] [MgCl2],Residual activity (%) KP9860,KP9860 protease [7]; [14],100%
same,Residual activity (%) KP43,KP43 protease [8]; [14],92%
same,Residual activity (%) KP1790,KP1790 protease [10]; [14],103%
[Cl-].[Cl-].[Zn+2] [ZnCl2],Residual activity (%) KP9860,KP9860 protease [7]; [14],91%
same,Residual activity (%) KP43,KP43 protease [8]; [14],85%
same,Residual activity (%) KP1790,KP1790 protease [10]; [14],94%
Na polyoxyethylene alkylsulfate [Na polyoxyethylene alkylsulfate (ES)],Residual activity KP9860,KP9860 protease [4],104%
same,Residual activity KP43,KP43 protease [5],101%
same,Residual activity KP1790,KP1790 protease [6],102%
"[Ca+2].[Cl-].[Cl-] [CaCl2, calcium chloride]",Residual activity (%) KP9860,KP9860 protease [7]; pH 10,101%
same,Residual activity (%) KP43,KP43 protease [8]; pH 10,97%
same,Residual activity (%) KP1790,KP1790 protease [10]; pH 10,95%
"O=S(=O)(F)Cc1ccccc1 [PMSF, phenylmethanesulfonyl fluoride]",Residual activity (%) KP43,KP43 protease [1],0%
same,Residual activity (%) KP1790,KP1790 protease [2],0%
same,Residual activity (%) KP9860,KP9860 protease [3]; pH 7,0%
same,effect of inhibitor on activity,[11],inhibited
CC(C)C[C@H](NC(=O)[C@@H](NC(=O)N[C@@H](Cc1ccccc1)C(=O)O)[C@@H]1CCN=C(N)N1)C(=O)N[C@H](C=O)Cc1ccccc1 [Chymostatin],Residual activity (%) KP43,KP43 protease [1],87%
same,Residual activity (%) KP1790,KP1790 protease [2],87%
same,Residual activity (%) KP9860,KP9860 protease [3]; pH 7,80%
same,effect of inhibitor on activity,[11],inhibited
CC(C)[C@H](NC(=O)[C@H](CCCNC(=N)N)NC(=O)N[C@@H](Cc1ccccc1)C(=O)O)C(=O)N[C@H](C=O)CCCNC(=N)N [Antipine] ({Phe-CO}-Arg-Val-Arg-aldehyde),Residual activity (%) KP43,KP43 protease [1],103%
same,Residual activity (%) KP1790,KP1790 protease [2],99%
same,Residual activity (%) KP9860,KP9860 protease [3]; [13],97%
same,effect of inhibitor on activity,[11],not found
[Cl][Cu][Cl] [CuCl2],Residual activity (%) KP9860,KP9860 protease [7]; [14],94%
same,Residual activity (%) KP43,KP43 protease [8]; [14],91%
same,Residual activity (%) KP1790,KP1790 protease [10]; [14],96%
"O[C@H](CS)[C@H](O)CS (racemic) [DTT, dithiothreitol]",Residual activity (%) KP43,KP43 protease [1],104%
same,Residual activity (%) KP1790,KP1790 protease [2],102%
same,Residual activity (%) KP9860,KP9860 protease [3]; [12],105%
c1cnc2c(c1)ccc1cccnc12 [o-Phenanthroline],Residual activity (%) KP43,KP43 protease [1],100%
same,Residual activity (%) KP1790,KP1790 protease [2],103%
same,Residual activity (%) KP9860,KP9860 protease [3]; [12],100%
[Cl][Ni][Cl] [NiCl2],Residual activity (%) KP9860,KP9860 protease [7]; [14],96%
same,Residual activity (%) KP43,KP43 protease [8]; [14],92%
same,Residual activity (%) KP1790,KP1790 protease [10]; [14],95%
[Cl][Fe]([Cl])[Cl] [FeCl3],Residual activity (%) KP9860,KP9860 protease [7]; [14],96%
same,Residual activity (%) KP43,KP43 protease [8]; [14],93%
same,Residual activity (%) KP1790,KP1790 protease [10]; [14],113%
